US9480261B1, “Insecticidal strain of Serratia for control of brown marmorated stink bug (BMSB), Halyomorpha halys” (priority 2014, dated 2016)

Assays:
Experiment in all cases: Antibiotic susceptibility, disk method on L-agar; for Antibiotic resistance of strain ATCC 13880: key: R—Resistant; I—Intermediate; S—Susceptible; for Antibiotic resistance of strain BF1: key: R—Resistant; I—Intermediate; S—Susceptible; for Antibiotic resistance of strain NRRL B-50575: key: R—Resistant; I—Intermediate; S—Susceptible; for Antibiotic resistance of strain TBSB-08: key: R—Resistant; I—Intermediate; S—Susceptible; for Antibiotic resistance of strain TBSB-09: key: R—Resistant; I—Intermediate; S—Susceptible
[1] = system: NRRL B-50575; type: cell-based, Serratia; settings: for Antibiotic resistance of strain NRRL B-50575: disk method, L-agar, 25° C.; for resistance to antibiotics of NRRL B-50575 (in words): list of identifying characteristics; for Antibiotic resistance of strain NRRL B-50575: key: R—Resistant; I—Intermediate; S—Susceptible
Protocol: (§1) Antibiotic Susceptibility: Two agar plates were streaked for growth with NRRL B-50575, and 8 paper discs, each soaked in a different antibiotic, were placed on the agar, with 4 discs on each plate. Disks containing the following antibiotics were used/obtained from Remel (Lenexa Kans.): ampicillin (10 μg), chloramphenicol (30 μg), erythromycin (30 μg), kanamycin (30 μg), neomycin (30 μg), tetracycline (30 μg), triple sulfa (300 μg) and vancomycin (30 μg). The plates were incubated for 24 hours at 25° C., and after this incubation period the zone of inhibition around each disc was measured.
(§2) The diffusible pink pigment (FIG. 4) produced by NRRL B-50575 (TP 07) was different from the red pigment of BF1 and ATCC 13880 (ATCC-SM), and the pigment was made at temperatures below 25° C. Antibiotic susceptibility was determined using the disk method per manufacturer's instructions on L-agar, incubated at 25° C. (Table 6). All of the pink bacterial strains had the similar antibiotic resistance. They differed in sensitivity to tetracycline, kanamycin, and chloramphenicol. They also differed from BF1 and ATCC 13880 in sensitivity to erythromycin.

[2] = system: TBSB-08; type: cell-based; settings: 25° C. Note: key: R—Resistant; I—Intermediate; S—Susceptible.
Protocol: as §1, §2

[3] = system: TBSB-09; type: cell-based; settings: 25° C. Note: key: R—Resistant; I—Intermediate; S—Susceptible.
Protocol: as §1, §2

[4] = system: ATCC 13880; type: cell-based, Serratia marcescens; settings: 25° C. Note: key: R—Resistant; I—Intermediate; S—Susceptible.
Protocol: as §1, §2

[5] = system: Serratia marcesans BF1; type: cell-based, Serratia marcescens; settings: 25° C. Note: key: R—Resistant; I—Intermediate; S—Susceptible.
Protocol: as §1, §2

Molecule: CC1(C)S[C@@H]2[C@H](NC(=O)[C@H](N)c3ccccc3)C(=O)N2[C@H]1C(=O)O [Ampicillin, ampicillin]
- Antibiotic resistance of strain NRRL B-50575 [1]: R
- resistance to antibiotics of NRRL B-50575 (in words) [1]: resistant
- Antibiotic resistance of strain TBSB-08 [2]: R
- Antibiotic resistance of strain TBSB-09 [3]: R
- Antibiotic resistance of strain ATCC 13880 [4]: R
- Antibiotic resistance of strain BF1 [5]: R

Molecule: O=C(N[C@H](CO)[C@H](O)c1ccc([N+](=O)[O-])cc1)C(Cl)Cl [Chloramphenicol, chloramphenicol]
- Antibiotic resistance of strain NRRL B-50575 [1]: I
- resistance to antibiotics of NRRL B-50575 (in words) [1]: intermediate
- Antibiotic resistance of strain TBSB-08 [2]: I
- Antibiotic resistance of strain TBSB-09 [3]: S
- Antibiotic resistance of strain ATCC 13880 [4]: I
- Antibiotic resistance of strain BF1 [5]: S

Molecule: CC[C@H]1OC(=O)[C@H](C)[C@@H](O[C@H]2C[C@@](C)(OC)[C@@H](O)[C@H](C)O2)[C@H](C)[C@@H](O[C@@H]2O[C@H](C)C[C@H](N(C)C)[C@H]2O)[C@](C)(O)C[C@@H](C)C(=O)[C@H](C)[C@@H](O)[C@]1(C)O [Erythromycin, erythromycin]
- Antibiotic resistance of strain NRRL B-50575 [1]: R
- resistance to antibiotics of NRRL B-50575 (in words) [1]: resistant
- Antibiotic resistance of strain TBSB-08 [2]: R
- Antibiotic resistance of strain TBSB-09 [3]: R
- Antibiotic resistance of strain ATCC 13880 [4]: I
- Antibiotic resistance of strain BF1 [5]: I

Molecule: NC[C@H]1O[C@H](O[C@H]2[C@H](O)[C@@H](O[C@H]3O[C@H](CO)[C@@H](O)[C@H](N)[C@H]3O)[C@H](N)C[C@@H]2N)[C@H](O)[C@@H](O)[C@@H]1O [Kanamycin, kanamycin]
- Antibiotic resistance of strain NRRL B-50575 [1]: S
- Antibiotic resistance of strain TBSB-08 [2]: I
- Antibiotic resistance of strain TBSB-09 [3]: S
- Antibiotic resistance of strain ATCC 13880 [4]: S
- Antibiotic resistance of strain BF1 [5]: S

Molecule: CN(C)[C@@H]1C(O)=C(C(N)=O)C(=O)[C@@]2(O)C(O)=C3C(=O)c4c(O)cccc4[C@@](C)(O)[C@H]3C[C@@H]12 [Tetracycline, tetracycline]
- Antibiotic resistance of strain NRRL B-50575 [1]: I
- Antibiotic resistance of strain TBSB-08 [2]: I
- Antibiotic resistance of strain TBSB-09 [3]: R
- Antibiotic resistance of strain ATCC 13880 [4]: R
- Antibiotic resistance of strain BF1 [5]: R

Molecule: CN[C@H](CC(C)C)C(=O)N[C@H]1C(=O)N[C@@H](CC(N)=O)C(=O)N[C@H]2C(=O)N[C@H]3C(=O)N[C@H](C(=O)N[C@H](C(=O)O)c4cc(O)cc(O)c4-c4cc3ccc4O)[C@H](O)c3ccc(c(Cl)c3)Oc3cc2cc(c3O[C@@H]2O[C@H](CO)[C@@H](O)[C@H](O)[C@H]2O[C@H]2C[C@](C)(N)[C@H](O)[C@H](C)O2)Oc2ccc(cc2Cl)[C@H]1O [Vancomycin, vancomycin]
- Antibiotic resistance of strain NRRL B-50575 [1]: R
- resistance to antibiotics of NRRL B-50575 (in words) [1]: resistant
- Antibiotic resistance of strain TBSB-08 [2]: R
- Antibiotic resistance of strain TBSB-09 [3]: R
- Antibiotic resistance of strain ATCC 13880 [4]: R
- Antibiotic resistance of strain BF1 [5]: R

Molecule: neomycin
- Antibiotic resistance of strain NRRL B-50575 [1]: S
- resistance to antibiotics of NRRL B-50575 (in words) [1]: susceptible
- Antibiotic resistance of strain TBSB-08 [2]: S
- Antibiotic resistance of strain TBSB-09 [3]: S
- Antibiotic resistance of strain ATCC 13880 [4]: S
- Antibiotic resistance of strain BF1 [5]: S
